In patent US20160081959A1 (Glanbia plc, priority 2014, published 2016):
Like-named read-outs stand apart in the source and are kept apart here.

Columns and labels:
Nitric oxide (NO) levels = assay: Nitric oxide levels by salivary test strips in the human clinical study; type: in vivo
Procedure: NO was measured using salivary test strips, using a color scale for “Depleted”, “Low”, and “Normal” levels. […] Six subjects who were “Depleted” at Visit 2 increased to “Low” at Visit 3, while no subjects went from “Low” at Visit 2 to “Depleted” at Visit 3. In addition, the Visit 3 treatment after 1 hr gave 3 subjects “Depleted”, 4 subjects “Low”, and 3 subjects “Normal.” This “asymmetric” change pattern was statistically significant (p=0.031).

wound healing [1] = assay: Example 2: topical ASI hydrogel, Vits, et al. ablative laser wound protocol; type: in vivo, human; details: expected
Procedure: Wound 1 (2013) December 30.
The Vits, et al. protocol is used as follows. In 22 healthy men (experimental group, n=11; control group, n=11) wounds are induced by ablative laser on both thighs. Hydrogel (placebo) is applied on one of the two wounds, and Hydrogel (containing ASI) is applied on the wound of the other thigh. Progress in wound healing was documented via planimetry on days 1, 4 and 7 after wound induction. From day 9 onwards wound inspections were performed daily accompanied by a change of the dressing and a new application of the gel.

vasodilatory response = details: in vivo; cited from earlier work
[2] = Single dose oral pharmacokinetic study in fasted male Sprague Dawley rats (arginine in plasma, LC-MS/MS); type: in vivo
Procedure: Oral PK was determined in rats for ASI and several comparative compounds.
Test system: Sprague Dawley rats, male. Aged 7-9 weeks at the time of receipt.
Sample size: Study groups—4 groups per study; 5 animals/group.
The test compounds were administered through oral gavage. Oral route of administration is one of the preferred routes of administration in humans.
(§1) Study Group 1: Single dose oral pharmacokinetic study of ResArgin in male Sprague Dawley rats at a dose equivalent to 500 mg of L-Arginine/kg body weight. Male Sprague Dawley Rats aged 8-10 weeks were used for experimentation after a minimum 3 days of acclimatization. Fasted animals were administered ResArgin in a recommended vehicle (0.5% (w/v) Carboxymethylcellulose in sterile water) by oral route with a dose equivalent to 500 mg L-Arginine/kg body weight at dose volume of 10 mL/kg body weight.
Under mild isoflurane anesthesia, blood specimens were collected at time points (0.0 h, 0.16 h, 0.25 h, 0.50 h, 1.00 h, 2.00 h, 4.00 h, 6.00 h) post-dose as mentioned in Table 1 into pre-labeled tubes containing anticoagulant (K2EDTA—2 mg/mL blood) during the next 24 hours. Collected blood specimens were centrifuged at 4000 rpm, 4° C. for 10 minutes and plasma was separated and stored at −80° C. until analysis.
Study Group 2: Single dose oral pharmacokinetic study of L-Arginine in male Sprague Dawley rats at a dose of 500 mg/kg body weight. Male Sprague Dawley Rat aged 8-10 weeks were used for experimentation after a minimum 3 days of acclimatization. Fasted animals were administered L-Arginine in a recommended vehicle (0.5% (w/v) Carboxymethylcellulose in sterile water by oral route with 500 mg/kg body weight at dose volume of 10 mL/kg body weight.
as §1, with “3:” for “1:”, “L-Arginine HCl” for “ResArgin”
Male Sprague Dawley Rats aged 8-10 weeks were used for experimentation after a minimum 3 days of acclimatization.
Bioanalytical method(s) for the determination of arginine in Rat plasma were developed using LC-MS/MS. The developed methods were used for plasma sample analysis. Chromatograms were acquired using Analyst® software version 1.4.2. The concentration of the unknown sample was calculated from the following equation using regression analysis with peak area ratio of standard and ISD vs calibration standards concentration, using weighting factor (1/x^2) in accordance with Equation (1): […]
The pharmacokinetic parameters including Cmax, Tmax, AUC0-t, AUC0-inf, T1/2 and MRTlast of the arginine in rat plasma were determined from the concentration time data by using non-compartmental analysis (Phoenix WinNonlin 6.3, Pharsight Corporation, Princeton, N.J., USA).
Statistical analysis of PK parameters was performed by one way ANOVA followed by Dunnett's Post Test (L-Arginine Base vs ResArgin, L-Arginine HCl, and Arginine Silicate Inositol, respectively).

wound healing [3] = assay: Example 1: oral ASI, Kirk, et al. wound healing protocol in human volunteers; type: in vivo; details: ASI 1500 mg daily, 2 weeks; expected
Procedure: The Kirk, et al. protocol is used as follows. […] Fifteen volunteers receive a placebo tablet. Fibroplastic wound responses are assessed by inserting a polytetrafluoroethylene catheter subcutaneously into the right deltoid region. Epithelialization is examined by creating a 2×2 cm split thickness wound on the lateral aspect of the upper thigh. Mitogenic response of peripheral blood lymphocytes to concanavalin A, phytohemagglutinin, pokeweed mitogen, and allogeneic stimuli is assayed at the beginning and end of supplementation. Polytetrafluoroethylene catheters were analyzed for alpha-amino nitrogen (assessment of total protein accumulation), hydroxyproline (index of reparative collagen synthesis), and DNA accumulation (index of cellular infiltration).

[4] = Human clinical PK/PD/safety study of Nitrosigine (plasma arginine, serum silicon); type: in vivo
Text: See, Kalman D, Feldman S, Samson A, Krieger D., “A clinical evaluation to determine the safety, pharmacokinetics and pharmacodynamics of an inositol-stabilized arginine silicate dietary supplement in healthy adult males,” The FASEB Journal (April 2014) 28(1 Suppl.): LB418.
Purpose: The purpose of this study was to characterize the PK/PD of Nitrosigine®, an inositol-stabilized arginine silicate dietary supplement.
Type: Prospective, pharmacokinetic (PK)/pharmacodynamic (PD)/safety clinical trial.
Dosing: Nitrosigine® was administered as daily doses of 1,500 mg (3×500 mg tablets).
Visit 2: single dose evaluation (0-6 hrs), 1500 mg—this was also utilized as the first dose of the 14 day study. It is noted in addition that Visit 2 is also the beginning of the 14 day study, during which subjects take product once a day for 14 days.
Visit 3: 14 days later, single dose (0-6 hrs)
PK Measurements: Plasma arginine and serum silicon levels were measured after the first dose on Day 1 and again after a dose taken on Day 14, after 14 days of dosing.

[5] = tested on: muscle soreness, muscle damage, and recovery; assay: Example 3: clinical study of muscle soreness, muscle damage and recovery; type: in vivo, human; details: ASI 750 mg 2×/day for 14 days with training regimen; expected
Procedure: Clinical Study to measure muscle soreness, muscle damage, and recovery. Crossover PCT.
Study group: n=16 males exercising <150 mins/week.
Secondary endpoints: NO level, blood pressure, heart rate, leg circumference, patient survey/self-assessment, e.g., visual analog scale (VAS) for pain, intramuscular biopsy.

[6] = tested on: blood proteins related to vasodilation and heart health; assay: Blood proteins after ASI treatment; details: in vivo
wounds = details: ingested; mice; cited from earlier work
wound healing [7] = details: 17 g/day, after two weeks, cited from earlier work
[8] = arginine in plasma, fasted male Sprague Dawley rats, single oral dose equivalent to 500 mg L-Arginine/kg b.w.
[9] = plasma arginine, rat, oral, 500 mg/kg L-Arginine equivalent
[10] = rat, 500 mg/kg, arginine in plasma, fasted male Sprague Dawley rats, single oral dose equivalent to 500 mg L-Arginine/kg b.w.
[11] = rat, 500 mg/kg, arginine in plasma, fasted male Sprague Dawley rats, single oral dose equivalent to 500 mg L-Arginine/kg b.w., read-out: Cmax
[12] = rat, 500 mg/kg, arginine in plasma, fasted male Sprague Dawley rats, single oral dose equivalent to 500 mg L-Arginine/kg b.w., read-out: Tmax

arginine silicate inositol [ASI]
change in NO levels after 14 days of administration (Nitric oxide (NO) levels; 1,500 mg/day for two weeks, Visit 2 vs Visit 3): significant increase | subjects with NO level Depleted (Nitric oxide (NO) levels; Visit 3 treatment after 1 hr): 3 subjects | subjects with NO level Low (Nitric oxide (NO) levels; Visit 3 treatment after 1 hr): 4 subjects | subjects with NO level Normal (Nitric oxide (NO) levels; Visit 3 treatment after 1 hr): 3 subjects | subjects who were Depleted at Visit 2 and increased to Low at Visit 3 (Nitric oxide (NO) levels; salivary NO strips, 10 subjects, 14 days daily dosing): Six | wound healing of wounds treated with ASI-containing gel vs placebo hydrogel (wound healing [1]): more rapid improvement in wound healing | amount with which similar vasodilatory responses have been shown (vasodilatory response): 750 mg | AUC% extrap [2, 8]: 16.987 ± 10.5790% | AUCinf [2, 8]: 1499.898 ± 233.6230 µg·h/mL | AUClast [2, 8]: 1248.990 ± 276.1000 µg·h/mL | Cmax [2, 8]: 474.300 ± 169.1040 µg/mL | MRTlast [2, 8]: 2.220 ± 0.2450 h | T1/2 [2, 8]: 2.159 ± 0.8280 h | Tmax [2, 8]: 1.100 ± 0.5480 h | AUCinf increase compared with Arginine base [2, 9]: 3 fold | AUCinf increase over Arginine base in plasma [2, 9]: 209% | Cmax increase compared with Arginine base [2, 9]: 2.35 fold | Cmax increase over Arginine base in plasma [2, 9]: 135% | rate of epithelialization of the skin defect vs placebo (wound healing [3]): significantly enhanced | rate of wound healing vs placebo (wound healing [3]): increased | serum insulin-like growth factor-1 (IGF-1) levels (wound healing [3]): significantly elevated | wound catheter hydroxyproline accumulation and total protein content vs placebo (wound healing [3]): increase | adverse events related to the study medication ([4]; 1,500 mg daily for 14 days, 10 subjects): No adverse events related to the study medication | increase of plasma arginine concentration relative to baseline ([4]; in 30 minutes, single dose 1,500 mg, human): greater than 30% | Arginine absorption: Tmax Day 1 ([4]; plasma arginine, 10 healthy males, 1,500 mg oral, Day 1): 1.05 ± 0.50 h | Silicon absorption: Tmax Day 1 ([4]; serum silicon, 10 healthy males, 1,500 mg oral, Day 1): 2.15 ± 1.75 h | duration of significantly raised blood arginine and silicon levels ([4]; single dose, human): up to 3 hours | cytokine markers of inflammation [5]: decrease or improvement | listed measurement parameters (e.g. NO levels) [5]: improve | effect on blood proteins related to vasodilation and heart health [6]: significantly enhances

O=[Si]=O [silica]
closing and healing of wounds (wounds): effective at helping to close and heal wounds

N=C(N)NCCC[C@H](N)C(=O)O [arginine, L-arginine]
hydroxyproline and protein accumulation at the wound site vs non-supplemented controls (wound healing [7]; 30 elderly patients): significantly greater | IGF-1 (wound healing [7]): elevated | lymphocyte response (wound healing [7]): elevated

N=C(N)NCCC[C@H](N)C(=O)O [L-Arginine Base, L-Arginine]
amount that induces a significant vasodilatory response (vasodilatory response): ca. 5 grams | AUC% extrap [2, 8]: 8.195 ± 5.9280% | AUC(0-inf) [2, 10]: 486 ± 114 µg·h/mL | AUC(0-t) [2, 10]: 445 ± 106 µg·h/mL | MRT last [2, 10]: 1.66 ± 0.34 h | half-life [2, 10]: 1.41 ± 0.51 h | Cmax [2, 11]: 202 ± 54.3 µg/mL | Tmax [2, 12]: 0.65 ± 0.335 h

Cl.N=C(N)NCCC[C@H](N)C(=O)O [L-Arginine HCl, L-Arginine hydrochloride]
amount that induces a significant vasodilatory response (vasodilatory response): ca. 5 grams | AUC% extrap [2, 8]: 27.645 ± 23.5890% | AUC(0-inf) [2, 10]: 442 ± 122 µg·h/mL | AUC(0-t) [2, 10]: 306 ± 92.7 µg·h/mL | MRT last [2, 10]: 2.48 ± 0.368 h | half-life [2, 10]: 3.08 ± 2.08 h | Cmax [2, 11]: 94.7 ± 26.2 µg/mL | Tmax [2, 12]: 1.1 ± 0.548 h
